Experimental data as given in ChEMBL document CHEMBL5375989, “Pioneering 4,11-Dioxo-4,11-dihydro-1H-anthra[2,3-d]imidazol-3-ium Compounds as Promising Survivin Inhibitors by Targeting ILF3/NF110 for Cancer Therapy” (J Med Chem, 2023).
pKd: −log10 of the molar value. Calls of active or inactive are those of the source. The rule behind the calls is not given here.

What was measured:
[1] = Toxicity in BALB/c nude mouse assessed as effect on body weight at 2 mg/kg, sc administered every 2 days for 14 days; assay type: organism-based; conditions: in vivo, 336 h, time 14 day
A549 [2] = assay: Antitumor activity against human A549 cells xenografted in BALB/c nude mouse assessed as inhibition of tumor growth at 2 mg/kg, sc administered every 2 days for 14 days; assay type: functional, organism-based; conditions: time 14.0 day
A549 [3] = assay: Antitumor activity against human A549 cells xenografted in BALB/c nude mouse assessed as decrease in tumor cell proliferation at 2 mg/kg measured after 14 days by PCNA staining based analysis; assay type: functional, organism-based; conditions: time 14.0 day
[4] = Toxicity in BALB/c mouse assessed as appearance of spotty necrosis of hepatocytes at 2 mg/kg by H and E staining based analysis; assay type: organism-based; conditions: in vivo
A549 [5] = assay: Antitumor activity against human A549 cells xenografted in BALB/c nude mouse assessed as increase in apoptosis at 2 mg/kg measured after 14 days by tunel staining based analysis; assay type: functional, organism-based; conditions: time 14.0 day
[6] = Toxicity in BALB/c mouse assessed as appearance of severe damage to spleen tissue at 2 mg/kg by H and E staining based analysis; assay type: organism-based; conditions: in vivo
[7] = Toxicity in BALB/c mouse assessed as appearance of acidophilic degeneration of myocardial cells at 2 mg/kg by H and E staining based analysis; assay type: organism-based; conditions: in vivo
[8] = Toxicity in BALB/c nude mouse assessed as side effects at 2 mg/kg, sc administered every 2 days for 14 days; assay type: organism-based; conditions: in vivo, 336 h, time 14 day
A549 [9] = assay: Antitumor activity against human A549 cells xenografted in BALB/c nude mouse assessed as decrease in tumor cell proliferation at 2 mg/kg measured after 14 days by Ki67 staining based analysis; assay type: functional, organism-based; conditions: time 14.0 day
A549 [10] = assay: Antitumor activity against human A549 cells xenografted in BALB/c nude mouse assessed as appearance of various size of tumor necrosis at 2 mg/kg measured after 14 days by H and E staining based analysis; assay type: functional, organism-based; conditions: time 14.0 day
[11] = Antiproliferative activity against human HUVEC cells assessed as inhibition of cell growth measured after 48 hrs by MTT assay; assay type: toxicity, cell-based; conditions: human, HUVEC cells
[12] = Toxicity in BALB/c mouse assessed as morphological changes with karyopyknosis in spleen at 2 mg/kg by H and E staining based analysis; assay type: organism-based; conditions: in vivo
[13] = Drug metabolism in BALB/C nude mouse kidney xenografted with human A549 cells at 2 mg/kg measured after 2 to 6 hrs by UPLC-3Q analysis; assay type: ADME, organism-based; conditions: in vivo, time 2-6 hrs
[14] = Toxicity in BALB/c mouse assessed as appearance of renal tubular necrosis in cortex at 2 mg/kg by H and E staining based analysis; assay type: organism-based; conditions: in vivo
[15] = Selectivity index, ratio of IC50 for mouse L929 cells to IC50 for human A549 cells; assay type: toxicity; conditions: L929 cells and A549 cells, read-out: Ratio IC50
[16] = Antiproliferative activity against human MRC5 cells assessed as inhibition of cell growth measured after 48 hrs by MTT assay; assay type: toxicity, cell-based; conditions: human, MRC5 cells
[17] = Drug uptake in Sprague-Dawley rat blood at 2 mg/kg measured after 2 hrs by UPLC-3Q analysis; assay type: ADME, organism-based; conditions: in vivo
[18] = Toxicity in BALB/c mouse assessed as morphological changes with karyorrhexis in spleen at 2 mg/kg by H and E staining based analysis; assay type: organism-based; conditions: in vivo
[19] = Toxicity in BALB/c mouse assessed as appearance of condensed nuclei at 2 mg/kg by H and E staining based analysis; assay type: organism-based; conditions: in vivo
[20] = target: T1, Interleukin enhancer-binding factor 3 (Homo sapiens, UniProt Q12906); assay: Binding affinity to ILF3 (unknown origin) assessed as dissociation constant at upto 1 uM by SPR method
T1 sequence (Q12906 whole entry): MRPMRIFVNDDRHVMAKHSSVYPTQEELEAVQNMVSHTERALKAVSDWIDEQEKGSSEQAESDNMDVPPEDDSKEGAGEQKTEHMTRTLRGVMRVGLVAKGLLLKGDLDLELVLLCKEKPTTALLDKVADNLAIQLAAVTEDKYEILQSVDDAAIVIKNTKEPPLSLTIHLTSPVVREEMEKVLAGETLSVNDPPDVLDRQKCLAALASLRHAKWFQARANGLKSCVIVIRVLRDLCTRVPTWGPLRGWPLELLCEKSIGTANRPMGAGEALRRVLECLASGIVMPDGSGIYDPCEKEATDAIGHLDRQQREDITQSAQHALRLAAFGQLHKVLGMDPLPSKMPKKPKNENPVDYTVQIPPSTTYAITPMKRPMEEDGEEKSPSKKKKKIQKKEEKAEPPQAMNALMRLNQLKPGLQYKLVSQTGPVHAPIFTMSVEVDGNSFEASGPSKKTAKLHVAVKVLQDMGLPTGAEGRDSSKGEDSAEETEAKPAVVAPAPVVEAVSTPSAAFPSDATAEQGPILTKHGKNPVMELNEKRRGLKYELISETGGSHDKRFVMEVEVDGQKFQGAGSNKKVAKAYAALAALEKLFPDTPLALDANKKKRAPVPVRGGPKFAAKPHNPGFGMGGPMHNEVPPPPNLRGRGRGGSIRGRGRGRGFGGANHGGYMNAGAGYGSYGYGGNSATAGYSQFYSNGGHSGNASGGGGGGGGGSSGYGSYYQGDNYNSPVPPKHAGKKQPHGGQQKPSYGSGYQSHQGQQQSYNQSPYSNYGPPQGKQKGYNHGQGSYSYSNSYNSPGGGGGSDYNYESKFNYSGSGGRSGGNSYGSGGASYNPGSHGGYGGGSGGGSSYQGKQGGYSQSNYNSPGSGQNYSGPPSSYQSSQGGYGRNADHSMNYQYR

[21] = Toxicity in BALB/c mouse assessed as varying degree of multifocal alveolar luminal hemorrhage at 2 mg/kg by H and E staining based analysis; assay type: organism-based; conditions: in vivo
[22] = Toxicity in BALB/c mouse assessed as disappearance of nuclei at 2 mg/kg by H and E staining based analysis; assay type: organism-based; conditions: in vivo
[23] = Antiproliferative activity against mouse NIH3T3 cells assessed as inhibition of cell growth measured after 48 hrs by MTT assay; assay type: toxicity, cell-based; conditions: mouse, NIH3T3 cells
[24] = Drug distribution in BALB/C nude mouse heart xenografted with human A549 cells at 2 mg/kg measured after 2 to 6 hrs by UPLC-3Q analysis; assay type: ADME, organism-based; conditions: in vivo, time 2-6 hrs

Compound: COc1cccc2c1C(=O)c1c(O)c3c(c(O)c1C2=O)C[C@@](O)(C(=O)CO)C[C@@H]3O[C@H]1C[C@H](N)[C@H](O)[C@H](C)O1 [DOXORUBICIN]
- Activity [1]: Toxic
- Activity (A549 [2]): Active
- Activity (A549 [3]): Active
- Activity [4]: Toxic
- Activity (A549 [5]): Active
- Activity [6]: Toxic
- Activity [7]: Toxic
- Activity [8]: Toxic
- Activity (A549 [9]): Active
- Activity (A549 [10]): Active

Compound: COCCn1c2c([n+](Cc3cnccn3)c1C)C(=O)c1ccccc1C2=O.[Br-] [SEPANTRONIUM BROMIDE]
- IC50 at 48 h [11]: 0.92 µM
- Activity [12]: Toxic
- Drug metabolism [13]: Metabolite_Detected
- Activity [14]: Toxic
- selectivity ratio [15]: 970
- IC50 at 48 h [16]: 1.94 µM
- Drug uptake [17]: Not Active
- Activity [18]: Toxic
- Activity [19]: Toxic
- pKd [20]: 6.24
- Activity [21]: Toxic
- Activity [22]: Toxic
- IC50 at 48 h [23]: 13.6 µM
- Drug uptake [24]: Active
